The values that follow come from patent US20100010214A1, “LYOPHILIZED PREPARATION OF 1-METHYLCARBAPENEM” (DAIICHI SANKYO COMPANY, LIMITED, priority 2006, published 2010).

The series in a line: Solubility of compound (I) in water at predetermined pH. In kind it is physicochemical. The note with it: water for injection, ice-cold, pH adjusted with HCl/NaOH; solubility increased with decrease in pH. On the procedure: Method for Measuring Solubility of Compound (I):
Compound (I) (in an amount so that concentration of compound (I) in the aqueous solution becomes 300 mg/g) is weighed in a beaker. 15 mL of water for injection cooled to 5° C. is added, and the solution is stirred using a stirrer under ice-cold conditions for 30 minutes. While stirring, adjustment to the predetermined pH is conducted by dropwise addition of 1N hydrochloric acid or 1N sodium hydroxide aqueous solution, and the pH is maintained. After stirring is completed, a filtration filter (for example, Ekicrodisc 0.45 μm HT-Tuffryn, Gelman Science Japan, Ltd.) is used for filtration, and the amount of compound (I) in the filtrate is measured by the quantitative HPLC method which is similar to Test Example 1 described later, and thus solubility of compound (I) is obtained.

In the case of `C[C@@H](O)[C@H]1C(=O)N2C(C(=O)O)=C(S[C@H]3C[C@@H](C(=O)N4CC[C@H](NC(=O)CNC(=N)N)C4)N(C)C3)[C@H](C)[C@H]12` [Compound (I), (1R,5S,6S)-6-[(1R)-1-hydroxyethyl]-1-methyl-2-[(2S,4S)-2-[(3S)-3-(2-guanidinoacetylamino)pyrrolidin-1-ylcarbonyl]-1-methylpyrrolidin-4-ylthio]-1-carbapen-2-em-3-carboxylic acid], the Solubility in water entry is on record as “solubility sufficient for the production of the preparation at pH 7 or lower”.
